The text below walks through data of patent US20160151403A1, “SMALL MOLECULE MODULATORS OF P53 FAMILY SIGNALING” (The Trustees of the University of Pennsylvania, priority 2006, published 2016).

Entries after “also recorded” stand apart in the source; their conditions may differ.

For series [1], the system named is DR5 and p21 in HCT116/p53(−/−) cells. The experiment in a line: Western blot of p53 target genes DR5 and p21 in HCT116/p53(-/-) cells. To be noted: p53-null HCT116 cells, 16 hours, doses per compound in FIG. 2B. The class given is cell-based, human. As for the experimental part:
FIGS. 2A-2B show protein levels of p53 target genes p21 and DR5 were induced by selected compounds in HCT/p53(+/+) cells (A) or HCT/p53(−/−) cells (B). In A, doses of compounds (μM) are listed above each lane. Cells treated with compounds were harvested and lysed for SDS-PAGE and immunoblotted with p21 or DR5 antibodies. Ran was used as a protein loading control. Doses of compounds in B were as follows: 2 μM for #15, 12 μM for #1 and #23, 20 μM for #20 and #32, 100 μM for #33, 200 μM for #5, #8, #12, #16, #17, and #22, and 400 μM for #3. The dose for adriamycin was 0.2 μg/ml. Cells were incubated for 16 hours at 37° C. with the various drugs prior to cell harvest;
(§1) Cells were collected and protein concentration was quantified by the Bio-Rad protein assay prior to SDS-PAGE. Proteins were transferred to a PVDF membrane (Immobilon-P, Millipore Corporation, Bedford, Mass.) by a semi-dry transfer apparatus (Bio-Rad Laboratories, Hercules, Calif.). The membranes with transferred proteins were blotted with 10% W/V non-fat dry milk and then incubated with the primary antibody and subsequently secondary antibodies, which were labelled by horseradish peroxidase, or infrared dyes (IR). Signals were visualized by either ECL (Amersham Pharmacia Biotech, England, UK) and exposed to an X-ray film, or scanned by the Odyssey Infared Imaging System (LI-COR Biosciences, Lincoln, Nebr.). Anti-p53, DO-1, was from Santa Cruz biotechnology, Inc. (Santa Cruz, Calif.), anti-p73 (AB-1) and anti-p21 (AB-1) were obtained from Calbiochem (San Diego, Calif.). Anti-ser20 of p53 Cell were obtained from Signaling Technology (Danvers, Mass.) and anti-DR5 antibody was obtained from Cayman Chemical (Ann Arbor, Mich.).
A number of selected compounds was further tested on HCT116/p53^−/− cells to verify the possibility of induction of p53 target gene expression in the absence of p53. […] The importance of this observation is in establishing that it is possible to identify small molecules with the potential to induce p53 target gene expression in p53-deficient cells.

For series [2], the system named is p73 in HCT116/p53^−/− cells. Description: Effect of p73 knockdown (si-p73 retrovirus) on compound-induced p53-responsive transcriptional activity. It is filed as cell-based, human. To be noted: retrovirus mediated si-p73, HCT116/p53^−/− cells, FIG. 5D. As for the experimental part:
FIGS. 5A-5D show p53 transcriptional activity is induced in DLD1 xenografts and effects of knockdown of p73 by siRNA on drug-induced transcriptional activity. DLD1/PG13 cells were inoculated subcutaneously with 5 million cells. At 24 hours later mice were treated with selected compounds (100 mg/kg for #1, 50 mg/kg for #14 and #17, and 10 mg/kg for #23), and subsequently bioluminescence imaging was carried out after 16 hours. Two weeks later, tumor masses were weighed. A, bioluminescence imaging of p53 transcriptional activity induced in vivo. B, calculated fold-induction of p53 transcriptional activity. C, inhibition of tumor growth by selected compounds. D, effects of si-TAp73 on the transcriptional activity induced by selected compounds;
pBS/U6 vector containing TAp73 RNAi were kindly provided by Leif W. Ellisen (20), Harvard Medical School, from which the expression cassette was removed and recombined to pSIREN-RetroQ (Clontech Laboratories, Inc. Mountain View, Calif.), which was reconstructed to express a blasticidin-resistant marker.
The questioned whether the p53 family member p73 is involved in the p53-responsive transcriptional activity induced by the compounds identified was then tested. p63, the other p53 family member, was not tested, because the TA form of p63 is rarely expressed in malignant and normal tissues except for germ cells of the ovary and testis.

Series [3] is described as follows: Toxicity in xenograft-bearing mice. The class given is in vivo. The following applies: i.p., #1 100 mg/kg, #14 50 mg/kg, #23 10 mg/kg. As for the experimental part: Compounds #1, #14, #17, and #23 were tested in colon-tumor xenograft-bearing mice in order to evaluate their toxicities and potential anti-tumor effects (FIG. 4). […] The initial doses were chosen below maximal tolerated doses based on the NCI DTP toxicology databases for chemical compound testing in vivo so that mice would survive drug administration and allow subsequent evaluation of anti-tumor effects. p53-null HCT116 xenografts were first tested to document anti-tumor effects in p53-deficient tumors and an experiment to simulate therapy of established tumors was designed. A total of 2×10^6 p53-null HCT116 cells were implanted on opposite flanks subcutaneously in each of 6 nude mice in each group. When tumor masses grew to about 3-5 mm in diameter, drugs were administered intra-peritoneally (#1: 100 mg/kg; #14: 50 mg/kg; #23: 10 mg/kg), and on the next day additional groups received intravenous TRAIL (15) (100 μg/mice via the tail vein). Tumor weights were determined at 7 days later. […] Nonetheless in the future it may be possible to modify the structure of #17 or identify doses where synergistic interactions with TRAIL may be observed.

For series [4], the system named is p53 protein expression in HCT116 cells. Description: Western blot of p53 protein in parental HCT116 cells. The class given is cell-based, human. The following applies: FIG. 2A. The method, then:
as §1
The chemical library screening was directed at restoring “p53 responses” in p53-deficient cells. The small molecules identified by the cell-based screening procedure appeared to be able to restore p53 responses in p53-deficient colon tumors and to eliminate viable cells. Their function was further tested on wild-type p53-expressing and p53-knockout HCT116 colon adenocarcinoma cell lines. A number of candidate modulators of signaling by the p53 family appeared to induce expression of p53 target genes such as p21 or DR5(13) either with or without stabilizing p53 protein in HCT116 cells (FIG. 2A).
(In general: A western blot detects proteins with antibodies after separation by electrophoresis.)

The subject of another series is γH2AX. Description: γH2AX test (DNA damage signaling). The following applies: after treatment. The class given is cell-based.
Another series concerns HCT116/p53^+/+ cells. Description: Flow cytometry cell cycle profile, HCT116/p53(+/+). It is filed as cell-based, human. The following applies: #17 200 μM, #23 10 μM. As for the experimental part: FIGS. 3A-3F show: Structures (A) of isolated compounds and summary of their effects on the p53 family and transcriptional targets (B). Cell cycle profiles of HCT/p53(+/+) and HCT/p53(−/−) in response to treatment by selected compounds (C-E). The dose of #17 was 200 μM and for #23 it was 10 μM. F, p73 protein levels were elevated in HCT116/p53(−/−) cells in response to treatment by selected compounds at various concentrations as indicated;
Adherent cells in a 6-well plate were trypsinized and collected in 15 ml centrifuge tubes to which were added the originally floating cells. The collected cells were ethanol-fixed and stained with propidium iodide (Sigma, St. Louis, Mo.). The DNA content of the stained cells was then measured using an Epics Elite flow cytometer (Beckman-Coulter, Fullerton, Calif.).
The ability of selected compounds from the chemical library screen to induce apoptosis of human colon tumor cells and the dependence of their effects on endogenous p53 status was further evaluated.
(In general: A flow cytometer gives signals particle by particle.)

In the case of `CO[C@H]1[C@@H](O)[C@@H](C)O[C@H](O[C@H]2[C@H](Oc3cccc4c(O)c5c(=O)oc6ccc(C)c7c(=O)oc(c34)c5c67)O[C@H](C)[C@H](O)[C@@H]2O)[C@@H]1O` [#1], in series [1], the “DR5 and p21 expression (p53 target genes)” value (shortened to “DR5 and p21 expression”) was “increasing expression of the p53 target genes DR5 and p21; also recorded: strongly induce p53 target gene expression”. Also, the “compound-induced p53-responsive transcriptional activity after knockdown of p73” value in series [2] is reported as “suppressed”. Besides, in series [3], the “overt toxicities in treated mice” value was “No overt toxicities were observed”. Besides, the p53 protein expression result in series [4] is “increase p53 expression; also recorded: significantly increased p53 protein levels”. Besides, the γH2AX result in the series on γH2AX is on record as “not”. For the same molecule, the “sub-G1 peak (apoptosis)” value in the series with HCT116/p53^+/+ cells is listed as “induced a sub-G1 peak characteristic of apoptosis”.
As for `COc1cccc2c1C(=O)c1c(O)c3c(c(O)c1C2=O)CC(O)(/C(C)=N/O)CC3OC1CC(N)C(O)C(C)O1` (stereo not drawn) [#14], the “DR5 and p21 expression” value in series [1] is “increasing expression of the p53 target genes DR5 and p21; also recorded: strongly induce p53 target gene expression”. Further, the “compound-induced p53-responsive transcriptional activity after knockdown of p73” value in series [2] was “suppressed”. For the same molecule, the “overt toxicities in treated mice” value in series [3] is on record as “No overt toxicities were observed”. Besides, in series [4], the p53 protein expression result is “increase p53 expression; also recorded: significantly increased p53 protein levels”. The γH2AX result with γH2AX is given as “positive”. Moreover, in the series with HCT116/p53^+/+ cells, the “sub-G1 peak (apoptosis)” value was “induced a sub-G1 peak characteristic of apoptosis”.
Turning to `COc1cccc2c1C(=N)c1c(O)c3c(c(O)c1C2=O)C[C@@](O)(C(C)=O)C[C@@H]3O[C@H]1C[C@H](N)[C@H](O)[C@H](C)O1` [#23], the “DR5 and p21 expression” value in series [1] is “increasing expression of the p53 target genes DR5 and p21; also recorded: strongly induce p53 target gene expression”. In series [2], the “compound-induced p53-responsive transcriptional activity after knockdown of p73” value is recorded as “suppressed”. Moreover, the “overt toxicities in treated mice” value in series [3] was “No overt toxicities were observed”. For the same molecule, the p53 protein expression entry in series [4] is recorded as “increase p53 expression; also recorded: significantly increased p53 protein levels”. In addition, the γH2AX result in the series with γH2AX is “positive”. In addition, the “sub-G1 peak (apoptosis)” value in the series on HCT116/p53^+/+ cells is reported as “induced a sub-G1 peak characteristic of apoptosis”.
